Source: patent publication US11103493B2, “Substituted pyridinyl compounds as indoleamine 2,3-dioxygenase (IDO) inhibitors” (Merck Sharp & Dohme Corp., priority 2017, dated 2021)

Columns and labels:
[1] = target: T1, IDO1 (Homo sapiens, UniProt P14902); experiment: IDO1 Human Whole Blood Assay; format: cell-based; settings: LPS and IFNγ 100 ng/mL, 18 h, kynurenine by LC/MS/MS
Experimental: IDO1 Human Whole Blood Assay
Compounds to be tested were serially diluted in ten 3-fold steps in DMSO starting from 10 mM. 3 μL of compound dilutions or DMSO alone were then dispensed from the dilution plate into a polypropylene 96-well assay plate containing 97 μL of RPMI medium using an Echo 555 acoustic liquid handler (Labcyte). LPS and IFNγ was prepared in RPMI medium to a 10× of final conc. (1000 ng/mL), final concentration is 100 ng/mL.
Human whole blood was drawn in sodium heparin coated tubes from healthy internal donors. 240 μL of blood was transferred to each of the wells of a v-bottom 96 well plate. 30 μL of compound was transferred from intermediate dilution plate, and incubated for 15 min. 30 μL from stimulants was then transferred to blood and mixed thoroughly. Plate was covered with breathable membrane and incubated at 37° C. for overnight (18 h).
On day 2, isotope labeled standard solutions of kunurenine and tryptophan was made in water at 10× concentration and 30 μL was added to the blood at […] concentration. The assay plates were centrifuged at 300×G for 10 min with no brake to separate plasma from red blood cells. 60 μL of plasma samples was removed without disturbing red blood cells. Plasma was diluted with RPMI in 1:1 ratio and proteins were precipitated out with two volumes of Acetonitrile. The plates were centrifuged at 4000×G for 60 min. 20 μL of supernatant was carefully transferred to a 384 well plate containing 40 μL of 0.1% formic acid in water and analyzed by LC/MS/MS.
LC/MS/MS analyses were performed using Thermo Fisher's LX4-TSQ Quantum Ultra system. This system consists of four Agilent binary high-performance liquid chromatography (HPLC) pumps and a TSQ Quantum Ultra triple quadrupole MS/MS instrument. For each sample, 5 μL were injected onto an Atlantis T3 column (2.1 mm×150 mm, 3 μm particle size) from Waters. The mobile phase gradient pumped at 0.8 mL/min was used to elute the analytes from the column at 25° C. The elution started at 0% B increasing linearly to 25% B at 6.5 min, holding at 25% for 1 min, re-equilibrating to 10 min. Mobile phase A consisted of 0.1% formic acid in water. Mobile phase B consisted of 0.1% of formic acid in acetonitrile. Data was acquired in positive mode using a HESI interface. The operational parameters for the TSQ Quantum Ultra instrument were a spray voltage of 4000 V, capillary temperature of 380° C., vaporizer temperature 400° C., shealth gas 60 arbitrary units, Aux gas 20 arbitrary units, tube lens 85 and collision gas 1.2 mTorr. SRM chromatograms of kynurenine (QI: 209.2>Q3:94.0) and internal standard (QI: 215.3>Q3:98.2) were collected for 90 sec. The peak area was integrated by Xcalibur Quan software. The ratios between the kynurenine generated in the reaction and 2D6-Kynurenine spiked-in internal standard were used to generate percentage inhibition and IC50 values. Compounds were titrated and IC50's were calculated by 4 parameter sigmoidal curve fitting formula.

[2] = target: T1, IDO1; experiment: IDO1 Cellular Assay in HeLa Cells Stimulated with IFNγ; format: cell-based; settings: IFNγ 100 ng/mL, 300 uM L-tryptophan, about 48 hours incubation, fluorescence readout, read-out: IDO1 HeLa Cell Assay, IC50
Experimental: IDO1 Cellular Assay in HeLa Cells Stimulated with IFNγ
HeLa cells were cultured in complete HeLa culture medium (90% EMEM, 10% heat-inactivated fetal bovine serum) and expanded to about 1×10^9 cells. The cells were then collected and frozen down at 1×10^7 cells/vial in 1 mL frozen medium (90% complete HeLa culture medium, 10% DMSO).
Compounds to be tested were serially diluted in ten 3-fold steps in DMSO starting from 10 mM DMSO stocks in Echo low volume plate(s).
Frozen HeLa cells were thawed and transferred into HeLa assay medium (99% complete HeLa culture medium, 1% Pen/Strep) with 20 mL medium/vial of cells. The cells were spun down at 250 g in a table top centrifuge for 5 min and suspended in same volume of HeLa assay medium. The cells were then counted and adjusted to a density of 2×10^5 cells/mL in HeLa assay medium. Sterile L-tryptophan were added to the cells with final concentration of 300 uM L-tryptophan. A small aliquot (2 mL/plate) of HeLa cells were set aside and were not treated with IFNγ, to serve as the Max-E control.
HeLa cells with and without IFNγ were dispensed to the respective wells of 384-well assay plates containing the compounds. The plates were incubated for about 48 hours at a 37° C., 5% CO2 incubator. Afterwards, 12 μL of 0.5 M methyl isonipecotate in dimethyl sulfoxide were added into each well and the plates were sealed and incubated at 37° C. without CO2 overnight. The plates were centrifuged for 1 min at 200×g. The resulting fluorescence was measured in a Spectramax plate reader (Molecular Devices) with a 400 nm excitation filter and a 510 nm emission filter.
Potencies were calculated by […] least squares fit to the four parameter logistic IC50 equation.

T1 sequence (P14902 whole entry): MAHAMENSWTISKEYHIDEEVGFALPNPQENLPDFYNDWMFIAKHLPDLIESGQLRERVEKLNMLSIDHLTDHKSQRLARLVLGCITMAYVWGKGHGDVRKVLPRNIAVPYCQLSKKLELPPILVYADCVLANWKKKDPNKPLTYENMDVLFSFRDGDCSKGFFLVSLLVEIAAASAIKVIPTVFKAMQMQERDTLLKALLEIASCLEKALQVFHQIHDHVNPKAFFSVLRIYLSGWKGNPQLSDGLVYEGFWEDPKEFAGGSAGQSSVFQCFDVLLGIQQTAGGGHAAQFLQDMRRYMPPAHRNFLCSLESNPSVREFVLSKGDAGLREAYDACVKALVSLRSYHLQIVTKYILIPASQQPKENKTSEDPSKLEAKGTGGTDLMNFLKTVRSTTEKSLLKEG

SMILES | IC50 [1] [nM] | IC50 [2] [nM]
O=C(Nc1ccc(C2(c3nc4cc(F)c(F)cc4[nH]3)CCC2)cn1)c1cccc(Cl)c1 [Ex. 16, 3-chloro-N-{5-[1-(5,6-difluoro-1H-benzimidazol-2-yl)cyclobutyl]pyridin-2-yl}benzamide] | 889 | 7.77
O=C(Nc1ccc(C2(c3nc4cc(F)cc(F)c4[nH]3)CCC2)cn1)c1cccc(Cl)c1 [Ex. 17, 3-chloro-N-{5-[1-(5,7-difluoro-1H-benzimidazol-2-yl)cyclobutyl]pyridin-2-yl}benzamide] | 829 | 4.9
O=C(Nc1ccc(C2(c3nc4ccc(OC(F)F)cc4[nH]3)CCC2)cn1)c1cccc(Cl)c1 [Ex. 23, 3-chloro-N-(5-{1-[6-(difluoromethoxy)-1H-benzimidazol-2-yl]cyclobutyl}pyridin-2-yl)benzamide] | 1070 | 7.67
O=C(Nc1ccc(C2(c3nc4cccc(CO)c4[nH]3)CCC2)cn1)c1cccc(Cl)c1 [Ex. 24, 3-chloro-N-(5-{1-[7-(hydroxymethyl)-1H-benzimidazol-2-yl]cyclobutyl}pyridin-2-yl)benzamide] | 826 | 6.65
O=C(Nc1ccc(C2(c3nc4cccc(F)c4[nH]3)CCC2)cn1)c1cccc(Cl)c1 [Ex. 25, 3-chloro-N-{5-[1-(7-fluoro-1H-benzimidazol-2-yl)cyclobutyl]pyridin-2-yl}benzamide] | 691 | 7.21
N#Cc1cccc(C(=O)Nc2ccc(C3(c4nc5cc(C(F)(F)F)cnc5[nH]4)CCC3)cn2)c1 [Ex. 28, 3-cyano-N-(5-{1-[6-(trifluoromethyl)-3H-imidazo[4,5-b]pyridin-2-yl]cyclobutyl}pyridin-2-yl)benzamide] | 2290 | 23.5
O=C(O)Cc1cccc2nc(C3(c4ccc(NC(=O)c5cccc(Cl)c5)nc4)CCC3)[nH]c12 [Ex. 33, 2-(2-(1-(6-(3-Chlorobenzamido)pyridin-3-yl)cyclobutyl)-1H-benzo[d]imidazol-7-yl)acetic acid] | 1600 | 20.7
N#Cc1cccc(C(=O)Nc2ccc(C3(c4nc5cccc(CCO)c5[nH]4)CCC3)cn2)c1 [Ex. 34, 3-Cyano-N-(5-(1-(7-(2-hydroxyethyl)-1H-benzo[d]imidazol-2-yl)cyclobutyl)pyridin-2-yl)benzamide] | 3290 | 24.8
N#Cc1cccc(C(=O)Nc2ccc(C3(c4nc5ncc(C(F)(F)F)cc5[nH]4)CCC3)nc2)c1 [Ex. 45, 3-Cyano-N-(6-(1-(6-(trifluoromethyl)-1H-imidazo[4,5-b]pyridin-2-yl)cyclobutyl)pyridin-3-yl)benzamide] | 5780 | 4.98
N#Cc1cccc(C(=O)Nc2ccc(C3(c4nc5ccccc5[nH]4)CCC3)nc2)c1 [Ex. 46, N-(6-(1-(1H-benzo[d]imidazol-2-yl)cyclobutyl)pyridin-3-yl)-3-cyanobenzamide] | 1690 | 6.11

Now those with a lower IC50 [1], led by results:

IC50 [1] [nM] | IC50 [2] [nM] | SMILES
504 | 5.1 | Cc1cc(Cl)cc2nc(C3(c4ccc(NC(=O)c5cccc(Cl)c5)nc4)CCC3)[nH]c12 [Ex. 9, 3-chloro-N-{5-[1-(5-chloro-7-methyl-1H-benzimidazol-2-yl)cyclobutyl]pyridin-2-yl}benzamide]
501 | 5.23 | Cc1ccc2nc(C3(c4ccc(NC(=O)c5cccc(Cl)c5)nc4)CCC3)[nH]c2c1C [Ex. 10, 3-chloro-N-{5-[1-(6,7-dimethyl-1H-benzimidazol-2-yl)cyclobutyl]pyridin-2-yl}benzamide]
496 | 3.47 | Cc1cc2nc(C3(c4ccc(NC(=O)c5cccc(Cl)c5)nc4)CCC3)[nH]c2cc1F [Ex. 27, 3-chloro-N-{5-[1-(6-fluoro-5-methyl-1H-benzimidazol-2-yl)cyclobutyl]pyridin-2-yl}benzamide]
493 | 4.69 | Cc1cc(C)c2[nH]c(C3(c4ccc(NC(=O)c5cccc(Cl)c5)nc4)CCC3)nc2c1 [Ex. 8, 3-chloro-N-{5-[1-(5,7-dimethyl-1H-benzimidazol-2-yl)cyclobutyl]pyridin-2-yl}benzamide]
446 | 5.4 | O=C(Nc1ccc(C2(c3nc4cccc(CCCO)c4[nH]3)CCC2)cn1)c1cccc(Cl)c1 [Ex. 32, 3-Chloro-N-(5-(1-(7-(3-hydroxypropyl)-1H-benzo[d]imidazol-2-yl)cyclobutyl)pyridin-2-yl)benzamide]
312 | 6.58 | N#Cc1cccc(C(=O)Nc2ccc(C3(c4nc5cc(Cl)ccc5[nH]4)CCC3)cn2)c1 [Ex. 30, N-(5-[1-(5-chloro-1H-benzimidazol-2-yl)cyclobutyl]pyridin-2-yl}-3-cyanobenzamide]
279 | 2.42 | O=C(Nc1ccc(C2(c3nc4ccc(C(F)(F)F)cc4[nH]3)CCC2)cn1)c1cccc(Cl)c1 [Ex. 19, 3-chloro-N-(5-{1-[6-(trifluoromethyl)-1H-benzimidazol-2-yl]cyclobutyl}pyridin-2-yl)benzamide]
273 | 5.66 | O=C(Nc1ccc(C2(c3nc4ncc(C(F)(F)F)cc4[nH]3)CCC2)cn1)c1cccc(Cl)c1 [Ex. 7, 3-chloro-N-(5-{1-[6-(trifluoromethyl)-1H-imidazo[4,5-b]pyridin-2-yl]cyclobutyl}pyridin-2-yl)benzamide]
220 | 2.18 | N#Cc1cccc(C(=O)Nc2ccc(C3(c4nc5cccc(C(=O)N6CCCC6)c5[nH]4)CCC3)cn2)c1 [Ex. 38, 3-cyano-N-(5-{1-[7-(pyrrolidine-1-carbonyl)-1H-benzimidazol-2-yl]cyclobutyl}pyridin-2-yl)benzamide]
125 | 2.79 | Cc1ccc2nc(C3(c4ccc(NC(=O)c5cccc(Cl)c5)nc4)CCC3)[nH]c2c1 [Ex. 13, 3-chloro-N-{5-[1-(6-methyl-1H-benzimidazol-2-yl)cyclobutyl]pyridin-2-yl}benzamide]
80.9 | 1.89 | O=C(Nc1ccc(C2(c3nc4ccc(Cl)cc4[nH]3)CCC2)cn1)c1cccc(Cl)c1 [Ex. 21, 3-chloro-N-{5-[1-(6-chloro-1H-benzimidazol-2-yl)cyclobutyl]pyridin-2-yl}benzamide]
58.2 | 5.38 | N#Cc1cccc(C(=O)Nc2ccc(C3(c4nc5cccc(C(=O)N6CCC(O)CC6)c5[nH]4)CCC3)cn2)c1 [Ex. 37, 3-Cyano-N-(5-(1-(7-(4-hydroxypiperidine-1-carbonyl)-1H-benzo[d]imidazol-2-yl)cyclobutyl)pyridin-2-yl)benzamide]
